Numbers after ± are expanded uncertainties.
Assay: xn = mol fraction of the nth substance listed
Details: 101 kPa, Liquid; for viscosity: Capillary tube (Ostwald / Ubbelohde) method

CCOC(=O)OCC [diethyl carbonate] + CC(C)O
Details | mass density [kg/m3] | viscosity [mPa·s]
293.15 K, x1 = 0.1015 | 812.95 ± 2.5 | 1.586 ± 0.012
293.15 K, x1 = 0.1993 | 837.12 ± 2.3 | 1.252 ± 0.01
293.15 K, x1 = 0.3027 | 861.52 ± 2.1 | 1.073 ± 0.009
293.15 K, x1 = 0.4029 | 880.88 ± 1.9 | 0.946 ± 0.009
293.15 K, x1 = 0.5018 | 901.57 ± 1.7 | 0.865 ± 0.008
293.15 K, x1 = 0.5905 | 914.48 ± 1.6 | 0.827 ± 0.008
293.15 K, x1 = 0.7267 | 936.22 ± 1.4 | 0.791 ± 0.008
293.15 K, x1 = 0.8053 | 947.93 ± 1.3 | 0.781 ± 0.008
293.15 K, x1 = 0.8494 | 954.32 ± 1.2 | 0.782 ± 0.008
293.15 K, x1 = 1 | 975 ± 1 | 0.8 ± 0.008
298.15 K, x1 = 0.1015 | 808.12 ± 2.6 | 1.393 ± 0.011
298.15 K, x1 = 0.1993 | 831.98 ± 2.3 | 1.119 ± 0.009
298.15 K, x1 = 0.3027 | 855.03 ± 2.1 | 0.964 ± 0.009
298.15 K, x1 = 0.4029 | 875.34 ± 1.9 | 0.86 ± 0.008
298.15 K, x1 = 0.5018 | 893.55 ± 1.8 | 0.791 ± 0.008
298.15 K, x1 = 0.5905 | 908.68 ± 1.6 | 0.76 ± 0.008
298.15 K, x1 = 0.7267 | 930.3 ± 1.4 | 0.731 ± 0.008
298.15 K, x1 = 0.8053 | 941.94 ± 1.3 | 0.726 ± 0.008
298.15 K, x1 = 0.8494 | 948.31 ± 1.3 | 0.726 ± 0.008
298.15 K, x1 = 1 | 968.97 ± 1.1 | 0.746 ± 0.008
303.15 K, x1 = 0.1015 | 803.27 ± 2.6 | 1.223 ± 0.01
303.15 K, x1 = 0.1993 | 826.84 ± 2.4 | 0.996 ± 0.009
303.15 K, x1 = 0.3027 | 849.57 ± 2.2 | 0.867 ± 0.008
303.15 K, x1 = 0.4029 | 869.48 ± 2 | 0.782 ± 0.008
303.15 K, x1 = 0.5018 | 887.62 ± 1.8 | 0.726 ± 0.008
303.15 K, x1 = 0.5905 | 902.71 ± 1.7 | 0.7 ± 0.008
303.15 K, x1 = 0.7267 | 924.09 ± 1.5 | 0.677 ± 0.007
303.15 K, x1 = 0.8053 | 935.6 ± 1.4 | 0.674 ± 0.007
303.15 K, x1 = 0.8494 | 941.89 ± 1.3 | 0.676 ± 0.007
303.15 K, x1 = 1 | 962.39 ± 1.1 | 0.695 ± 0.008
313.15 K, x1 = 0.1015 | 793.12 ± 2.7 | 0.964 ± 0.009
313.15 K, x1 = 0.1993 | 816.46 ± 2.5 | 0.806 ± 0.008
313.15 K, x1 = 0.3027 | 839.13 ± 2.3 | 0.716 ± 0.008
313.15 K, x1 = 0.4029 | 859.2 ± 2.1 | 0.657 ± 0.007
313.15 K, x1 = 0.5018 | 877.18 ± 1.9 | 0.618 ± 0.007
313.15 K, x1 = 0.5905 | 892.18 ± 1.8 | 0.601 ± 0.007
313.15 K, x1 = 0.7267 | 913.63 ± 1.6 | 0.588 ± 0.007
313.15 K, x1 = 0.8053 | 925.25 ± 1.5 | 0.588 ± 0.007
313.15 K, x1 = 0.8494 | 931.59 ± 1.4 | 0.59 ± 0.007
313.15 K, x1 = 1 | 952.32 ± 1.2 | 0.61 ± 0.007
323.15 K, x1 = 0.1015 | 781.71 ± 2.8 | 0.78 ± 0.008
323.15 K, x1 = 0.1993 | 804.58 ± 2.6 | 0.668 ± 0.008
323.15 K, x1 = 0.3027 | 826.95 ± 2.4 | 0.604 ± 0.007
323.15 K, x1 = 0.4029 | 846.73 ± 2.2 | 0.562 ± 0.007
323.15 K, x1 = 0.5018 | 864.62 ± 2 | 0.535 ± 0.007
323.15 K, x1 = 0.5905 | 879.49 ± 1.9 | 0.524 ± 0.007
323.15 K, x1 = 0.7267 | 900.94 ± 1.7 | 0.517 ± 0.007
323.15 K, x1 = 0.8053 | 912.58 ± 1.6 | 0.519 ± 0.007
323.15 K, x1 = 0.8494 | 918.93 ± 1.5 | 0.521 ± 0.007
323.15 K, x1 = 1 | 939.78 ± 1.3 | 0.541 ± 0.007
333.15 K, x1 = 0.1015 | 771.12 ± 2.9 | 0.637 ± 0.007
333.15 K, x1 = 0.1993 | 793.64 ± 2.7 | 0.559 ± 0.007
333.15 K, x1 = 0.3027 | 815.77 ± 2.5 | 0.515 ± 0.007
333.15 K, x1 = 0.4029 | 835.41 ± 2.3 | 0.485 ± 0.007
333.15 K, x1 = 0.5018 | 853.29 ± 2.1 | 0.467 ± 0.007
333.15 K, x1 = 0.5905 | 868.1 ± 2 | 0.46 ± 0.007
333.15 K, x1 = 0.7267 | 889.56 ± 1.8 | 0.458 ± 0.007
333.15 K, x1 = 0.8053 | 901.29 ± 1.7 | 0.461 ± 0.007
333.15 K, x1 = 0.8494 | 907.67 ± 1.6 | 0.464 ± 0.007
333.15 K, x1 = 1 | 928.69 ± 1.4 | 0.483 ± 0.007
343.15 K, x1 = 0.1015 | 760.13 ± 3 | 0.523 ± 0.007
343.15 K, x1 = 0.1993 | 782.3 ± 2.8 | 0.47 ± 0.007
343.15 K, x1 = 0.3027 | 804.17 ± 2.6 | 0.44 ± 0.007
343.15 K, x1 = 0.4029 | 823.53 ± 2.4 | 0.421 ± 0.007
343.15 K, x1 = 0.5018 | 841.14 ± 2.2 | 0.41 ± 0.007
343.15 K, x1 = 0.5905 | 855.92 ± 2.1 | 0.407 ± 0.007
343.15 K, x1 = 0.7267 | 877.3 ± 1.9 | 0.409 ± 0.007
343.15 K, x1 = 0.8053 | 888.96 ± 1.8 | 0.413 ± 0.007
343.15 K, x1 = 0.8494 | 895.36 ± 1.7 | 0.417 ± 0.007
343.15 K, x1 = 1 | 916.33 ± 1.6 | 0.435 ± 0.007

CCOC(=O)OCC [diethyl carbonate] + CO
Details | mass density [kg/m3] | viscosity [mPa·s]
293.15 K, x1 = 0.1045 | 839.93 ± 2.2 | 0.599 ± 0.007
293.15 K, x1 = 0.2128 | 874.69 ± 1.9 | 0.622 ± 0.007
293.15 K, x1 = 0.2835 | 892.08 ± 1.8 | 0.634 ± 0.007
293.15 K, x1 = 0.4025 | 915.12 ± 1.6 | 0.655 ± 0.007
293.15 K, x1 = 0.5161 | 932.04 ± 1.4 | 0.679 ± 0.007
293.15 K, x1 = 0.6057 | 942.83 ± 1.3 | 0.7 ± 0.007
293.15 K, x1 = 0.7015 | 952.67 ± 1.2 | 0.723 ± 0.008
293.15 K, x1 = 0.8 | 961.18 ± 1.1 | 0.747 ± 0.008
293.15 K, x1 = 0.8845 | 967.44 ± 1.1 | 0.772 ± 0.008
293.15 K, x1 = 1 | 975 ± 1 | 0.801 ± 0.008
298.15 K, x1 = 0.1045 | 834.64 ± 2.3 | 0.567 ± 0.007
298.15 K, x1 = 0.2128 | 869.33 ± 2 | 0.588 ± 0.007
298.15 K, x1 = 0.2835 | 886.65 ± 1.8 | 0.598 ± 0.007
298.15 K, x1 = 0.4025 | 909.56 ± 1.6 | 0.616 ± 0.007
298.15 K, x1 = 0.5161 | 926.35 ± 1.4 | 0.637 ± 0.007
298.15 K, x1 = 0.6057 | 937.11 ± 1.4 | 0.656 ± 0.007
298.15 K, x1 = 0.7015 | 946.89 ± 1.3 | 0.677 ± 0.007
298.15 K, x1 = 0.8 | 955.37 ± 1.2 | 0.696 ± 0.007
298.15 K, x1 = 0.8845 | 961.65 ± 1.1 | 0.715 ± 0.008
298.15 K, x1 = 1 | 968.97 ± 1.1 | 0.746 ± 0.008
303.15 K, x1 = 0.1045 | 829.8 ± 2.3 | 0.527 ± 0.007
303.15 K, x1 = 0.2128 | 864.12 ± 2 | 0.546 ± 0.007
303.15 K, x1 = 0.2835 | 881.42 ± 1.9 | 0.556 ± 0.007
303.15 K, x1 = 0.4025 | 904.25 ± 1.6 | 0.573 ± 0.007
303.15 K, x1 = 0.5161 | 921 ± 1.5 | 0.593 ± 0.007
303.15 K, x1 = 0.6057 | 931.74 ± 1.4 | 0.611 ± 0.007
303.15 K, x1 = 0.7015 | 941.49 ± 1.3 | 0.63 ± 0.007
303.15 K, x1 = 0.8 | 949.97 ± 1.2 | 0.651 ± 0.007
303.15 K, x1 = 0.8845 | 956.23 ± 1.2 | 0.671 ± 0.007
303.15 K, x1 = 1 | 962.39 ± 1.1 | 0.695 ± 0.008
313.15 K, x1 = 0.1045 | 819.68 ± 2.4 | 0.462 ± 0.007
313.15 K, x1 = 0.2128 | 853.64 ± 2.1 | 0.48 ± 0.007
313.15 K, x1 = 0.2835 | 870.71 ± 2 | 0.49 ± 0.007
313.15 K, x1 = 0.4025 | 893.3 ± 1.8 | 0.503 ± 0.007
313.15 K, x1 = 0.5161 | 909.94 ± 1.6 | 0.521 ± 0.007
313.15 K, x1 = 0.6057 | 920.59 ± 1.5 | 0.537 ± 0.007
313.15 K, x1 = 0.7015 | 930.26 ± 1.4 | 0.556 ± 0.007
313.15 K, x1 = 0.8 | 938.67 ± 1.3 | 0.572 ± 0.007
313.15 K, x1 = 0.8845 | 944.93 ± 1.3 | 0.587 ± 0.007
313.15 K, x1 = 1 | 952.32 ± 1.2 | 0.61 ± 0.007
323.15 K, x1 = 0.1045 | 809.45 ± 2.5 | 0.408 ± 0.007
323.15 K, x1 = 0.2128 | 843 ± 2.2 | 0.424 ± 0.007
323.15 K, x1 = 0.2835 | 859.86 ± 2.1 | 0.432 ± 0.007
323.15 K, x1 = 0.4025 | 882.25 ± 1.9 | 0.444 ± 0.007
323.15 K, x1 = 0.5161 | 898.72 ± 1.7 | 0.461 ± 0.007
323.15 K, x1 = 0.6057 | 909.28 ± 1.6 | 0.477 ± 0.007
323.15 K, x1 = 0.7015 | 918.88 ± 1.5 | 0.493 ± 0.007
323.15 K, x1 = 0.8 | 927.24 ± 1.4 | 0.507 ± 0.007
323.15 K, x1 = 0.8845 | 933.43 ± 1.4 | 0.523 ± 0.007
323.15 K, x1 = 1 | 939.78 ± 1.3 | 0.541 ± 0.007
333.15 K, x1 = 0.1045 | 796.31 ± 2.7 | 0.363 ± 0.007
333.15 K, x1 = 0.2128 | 830.09 ± 2.3 | 0.376 ± 0.007
333.15 K, x1 = 0.2835 | 847.11 ± 2.2 | 0.384 ± 0.007
333.15 K, x1 = 0.4025 | 869.76 ± 2 | 0.397 ± 0.007
333.15 K, x1 = 0.5161 | 886.44 ± 1.8 | 0.41 ± 0.007
333.15 K, x1 = 0.6057 | 897.15 ± 1.7 | 0.426 ± 0.007
333.15 K, x1 = 0.7015 | 906.9 ± 1.6 | 0.441 ± 0.007
333.15 K, x1 = 0.8 | 915.39 ± 1.6 | 0.454 ± 0.007
333.15 K, x1 = 0.8845 | 921.71 ± 1.5 | 0.466 ± 0.007
333.15 K, x1 = 1 | 928.69 ± 1.4 | 0.483 ± 0.007

— the NIST ThermoML archive (doi:10.1021/je050414d)
